51 compounds from PubChem BioAssay AID1996 can be followed below.

≈ marks a conversion by molar mass, not a printed value.

For this data set the following is noted: buffer; pH 7.4; 200.0 µM.
For `CCc1cccc2c(C(=O)C(NC(C)CC)c3ccccc3)c[nH]c12` (stereo unspecified), the kinetic solubility is 42.8 µg/mL (≈ 128 µM).
Next, `O=C(Cn1cc([N+](=O)[O-])cn1)NCCc1nc2ccccc2[nH]1`: over 47.1 µg/mL; `COc1ccc(OC)c(NC(=O)c2cccc(NC(=O)c3ccccc3)c2)c1`: 9.8 µg/mL (≈ 26 µM); `COc1ccc(CNc2ncc(-c3ccccc3)n2C)cc1`: 28.6 µg/mL (≈ 97.5 µM).
Then `Cc1ccc(S(C)(=O)=NC(=O)NC(=O)c2c(F)cccc2Cl)cc1` (stereo unspecified), with 41.1 µg/mL (≈ 111 µM); and `Cc1cc(Nc2ccc(F)c(F)c2)nc(-c2ccccc2O)n1`, with under 0.2 µg/mL; and `O=C(O)c1cc(O)ccc1NC(=O)c1cccc2ccccc12`, with over 46.1 µg/mL.
Then `O=C(c1ccc(F)cc1)C1CCN(C(=O)c2ccccc2)CC1`, with over 46.7 µg/mL; and `Cc1onc(-c2ccccc2)c1C(=O)NCCc1ccncc1`, with over 46.1 µg/mL.
`COc1ccccc1N=C1SCC(=O)N1Cc1ccco1` came in with a solubility (kinetic) of 35.8 µg/mL (≈ 118 µM).
Next, `CC1(C)Cc2ccccc2C(C(Cc2ccccc2)C(N)=O)=N1` (stereo unspecified): 41.8 µg/mL (≈ 136 µM); `Cc1cc(C)nc(SCCC(=O)Nc2ccc(F)cc2)n1`: over 45.8 µg/mL; `CC1CCN(C2=NC(=O)/C(=C/c3ccc(O)cc3)S2)CC1`: 3.8 µg/mL (≈ 12.6 µM).
Then `CCCN(CCC)C(=O)Nc1ccc(F)cc1F`, with over 38.4 µg/mL; and `Cc1ccc(C(=O)NCC(=O)OCC(=O)Nc2cc(S(=O)(=O)N3CCOCC3)ccc2Cl)s1`, with over 77.4 µg/mL; and `Cc1ccccc1OCCN(C#N)c1nc(N(C)C)nc(N(C)C)n1`, with 0.4 µg/mL (≈ 1.17 µM).
Next, `Cc1cccc(NS(=O)(=O)c2ccc3c(c2)CCC(=O)N3)c1`: over 47.5 µg/mL; `CC(C)(C)N(Cc1cc2ccccc2[nH]c1=O)C(=O)c1cccc([N+](=O)[O-])c1`: 1.4 µg/mL (≈ 3.69 µM); `Cl.O=C(CNCc1cccs1)NC12CC3CC(CC(C3)C1)C2`: 48.1 µg/mL.
`CC1CN(C(=O)c2cc3cc(Cl)ccc3[nH]2)CC(C)O1` (stereo unspecified): the solubility (kinetic) amounted to 24.3 µg/mL (≈ 83 µM).
`O=C(O)c1ccc(NC(=O)c2cc3ccccc3o2)cc1` displayed a kinetic solubility of over 42.2 µg/mL.
Next, `Cc1cccc(OCCCn2c(CO)nc3ccccc32)c1`: over 44.5 µg/mL; `Br.Fc1ccc(-c2csc(NC3=NCCC3)n2)cc1`: 43 µg/mL.
Then `COCCNC(=O)CN1C2CCC1CC(O)(c1cccnc1)C2` (stereo unspecified), with over 47.9 µg/mL; and `O=C(Cc1ccccc1[N+](=O)[O-])Nc1ccccc1C(=O)N1CCOCC1`, with over 55.4 µg/mL; and `Cc1noc(C)c1COc1ccc2ccc(=O)oc2c1`, with 11.5 µg/mL (≈ 42.4 µM).
Then `CCC(C)[C@H](NC(=O)NCc1ccc(Cl)cc1)C(=O)O` (stereo partly specified), with over 44.8 µg/mL; and `Cc1cccc(NS(=O)(=O)c2csc(C(N)=O)c2)c1`, with over 44.5 µg/mL; and `COCCNC(=O)Cn1nc(-c2ccccc2F)ccc1=O`, with over 45.8 µg/mL.
For the compound `COc1cc(C(=O)Nc2cccnc2)cc(OC)c1OC`, the kinetic solubility is over 43.2 µg/mL.
In turn, `O=C1CN(C(=O)COC(=O)CCc2ccccc2)c2ccccc2N1` came in with a solubility (kinetic) of over 50.8 µg/mL.
In turn, `COc1cc(S(=O)(=O)NCCCn2ccnc2)ccc1Cl` registered a kinetic solubility of over 49.5 µg/mL.
Regarding `O=C(CSc1nc2ncccc2[nH]1)c1ccc2c(c1)OCO2`, the solubility (kinetic) came to 0.7 µg/mL (≈ 2.23 µM).
Then `Cc1cccc(C)c1NC(=O)COC(=O)/C=C/c1ccc(S(=O)(=O)N2CCOCC2)cc1`, with 2.2 µg/mL (≈ 4.8 µM); and `O=C(NCc1ccccc1)c1nc[nH]c1C(=O)NCc1ccccc1`, with 1.1 µg/mL (≈ 3.29 µM); and `CC1Cc2ccccc2N1C(=S)NC1CCCC1` (stereo unspecified), with 13.7 µg/mL (≈ 52.6 µM).
Then `FC(F)Oc1ccc(NC(=S)NCc2ccco2)cc1Cl`, with over 49.9 µg/mL.
Consider `CCCCS(=O)(=O)N1CCCC(C(=O)NCCc2ccccc2)C1` (stereo unspecified), for which the kinetic solubility amounted to 14.7 µg/mL (≈ 41.7 µM).
Next, `Cc1ccnc(NC(=O)c2ccc(Cl)c(NC(=O)c3ccccc3C)c2)c1`: 1 µg/mL (≈ 2.63 µM).
Then `CC(C)c1ccc(NC(=S)Nc2ccc3[nH]c(=O)[nH]c3c2)cc1`, with 16.7 µg/mL (≈ 51.2 µM); and `CC1=NOC(=O)/C1=C\c1ccc(-c2ccc(Cl)c(C(=O)O)c2)o1`, with over 49.8 µg/mL.
Next, `COc1cc(/C(O)=C(\C#N)c2nc3ccccc3[nH]2)cc(OC)c1OC`: 7.1 µg/mL (≈ 20.2 µM).
As for `COC(=O)NC1(C(F)(F)F)C(=O)Nc2c1c(=O)n(C)c(=O)n2C` (stereo unspecified), the kinetic solubility stood at 47.3 µg/mL (≈ 141 µM).
Take `COc1cc(-c2nnc(SCc3cc(=O)oc4cc(O)c(O)cc34)o2)cc(OC)c1OC`: the solubility (kinetic) was over 68.8 µg/mL.
Then `CC(NC(=O)c1ccc(N(C)C)cc1)c1ccc(F)cc1` (stereo unspecified), with 6.5 µg/mL (≈ 22.7 µM).
Then `CCNC(=O)C(C)NC(=O)C1=NN(c2ccccc2)C(=O)CC1` (stereo unspecified), with over 47.5 µg/mL; and `CC(OC(=O)CC1CCCCC1)C(=O)Nc1ccc(F)cc1` (stereo unspecified), with 1.2 µg/mL (≈ 3.9 µM).
Regarding `CCCCOc1ccc(C(=O)NN2CCOCC2)cc1`, the solubility (kinetic) is over 41.8 µg/mL.
Next, `CC(C)C(C(=O)Nc1ccccc1F)N1C(=O)c2ccccc2C1=O` (stereo unspecified): 38.4 µg/mL (≈ 113 µM).
Then `Cc1ccc2nc(NC(=O)C3CC3C)sc2c1` (stereo unspecified), with 2.4 µg/mL (≈ 9.74 µM); and `CC1=C(C#N)S(=O)(=O)C(C#N)C(c2ccccc2)C1` (stereo unspecified), with 30.1 µg/mL (≈ 111 µM).

As a reminder, the kinetic solubility is solubility judged after dilution from a stock solution rather than from solid.
